# Values quoted from earlier work as cited in patent US20210283075A1, “METHODS OF TREATING ATTENTION DEFICIT HYPERACTIVITY DISORDER” (Ovid Therapeutics, Inc., priority 2018, published 2021).
# Tests used:
# 5-HT2C = target: T1, 5-HT2C (Homo sapiens, UniProt P28335)
# T1 sequence (P28335 33-458): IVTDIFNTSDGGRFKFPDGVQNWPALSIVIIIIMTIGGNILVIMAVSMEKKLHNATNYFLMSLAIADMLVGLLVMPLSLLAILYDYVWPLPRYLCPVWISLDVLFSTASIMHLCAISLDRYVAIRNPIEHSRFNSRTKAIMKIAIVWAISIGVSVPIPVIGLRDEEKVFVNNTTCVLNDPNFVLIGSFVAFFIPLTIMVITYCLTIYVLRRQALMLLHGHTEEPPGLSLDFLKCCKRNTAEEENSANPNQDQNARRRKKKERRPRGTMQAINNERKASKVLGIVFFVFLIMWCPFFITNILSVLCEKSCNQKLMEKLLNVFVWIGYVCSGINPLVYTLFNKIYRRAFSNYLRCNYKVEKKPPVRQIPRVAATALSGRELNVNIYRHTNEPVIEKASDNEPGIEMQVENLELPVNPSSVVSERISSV
# sigma-1 receptor = sigma-1 receptor (Homo sapiens, UniProt Q99720)
# [1] = test system: brain-derived neurotrophic factor (BDNF); conditions: hypothalamus
# [2] = compared to lorazepam
# dopamine D3 = dopamine D3 (Homo sapiens, UniProt P35462)
# [3] = compared to placebo
# sigma-1 receptor, sequence (Q99720 whole entry, species assumed): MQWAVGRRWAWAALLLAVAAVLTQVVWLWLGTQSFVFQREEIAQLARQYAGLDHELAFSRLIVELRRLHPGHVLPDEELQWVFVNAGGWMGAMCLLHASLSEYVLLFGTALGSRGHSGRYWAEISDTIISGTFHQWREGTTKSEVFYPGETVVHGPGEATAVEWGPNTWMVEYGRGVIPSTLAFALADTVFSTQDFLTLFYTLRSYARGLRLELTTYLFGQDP
# dopamine D3, sequence (P35462 whole entry): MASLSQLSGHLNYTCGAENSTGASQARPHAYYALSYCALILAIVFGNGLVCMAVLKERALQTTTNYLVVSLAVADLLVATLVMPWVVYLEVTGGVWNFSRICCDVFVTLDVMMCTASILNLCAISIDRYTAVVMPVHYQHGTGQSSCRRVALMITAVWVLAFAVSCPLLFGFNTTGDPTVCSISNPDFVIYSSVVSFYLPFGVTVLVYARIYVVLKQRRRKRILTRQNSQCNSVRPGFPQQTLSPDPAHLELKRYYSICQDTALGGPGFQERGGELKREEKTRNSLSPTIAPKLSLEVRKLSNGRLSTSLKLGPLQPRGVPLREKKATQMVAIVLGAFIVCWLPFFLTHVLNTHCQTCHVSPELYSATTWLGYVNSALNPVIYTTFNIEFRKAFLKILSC
structure (smiles),measurement,setting,value
"CCCCSc1ccc(C(SCCN(C)C)c2ccccc2)cc1 (stereo not shown) [Captodiamine, 2-[(4-butylsulfanylphenyl)-phenyl-methyl]sulfanyl-N,N-dimethylethanamine]",activity at 5-HT2C,5-HT2C,5-HT2C antagonist
same,activity at sigma-1 receptor,sigma-1 receptor,sigma-1 receptor agonist
same,BDNF protein levels,[1],increase
same,concentration and dexterity when driving,[2],improved the concentration and dexterity
same,tendency to drowsiness,[2]; when driving,without inducing a tendency to drowsiness
same,activity at dopamine D3,dopamine D3,dopamine D3 agonist
same,severity of benzodiazepine withdrawal symptoms,[3],lower severity of benzodiazepine withdrawal symptoms
